# In patent US20080300138A1, “Dioxazinyl-Substituted Thienylsulphonylaminocarbonyl Compounds” (priority 2004, published 2008):
# What was measured:
# Amaranthus = experiment: Post-emergence test/greenhouse; format: in vivo; conditions: 80 g of ai/ha, WP sprayed at one-leaf stage, scored visually after about 3 weeks, 100% = plants have died, 0% = like control plants
# Procedure: (§1) Seeds of mono- and dicotyledonous weed and crop plants are placed in sandy loam soil in wood fiber pots, covered with soil and cultivated in a greenhouse under good growth conditions. 2 to 3 weeks after sowing, the trial plants are treated at the one-leaf stage. The test compounds, formulated as wettable powders (WP), are sprayed at various dosages with a water application rate of 800 I/ha (converted) and with addition of 0.2% of welting agent onto the green parts of the plants. After the trial plants have stood in the greenhouse for about 3 weeks under optimum growth conditions, the effect of the products is scored visually in comparison to untreated controls (herbicidal effect in percent (%): 100% effect=plants have died, 0% effect=like control plants).
# Cyperus = experiment: Post-emergence test/greenhouse; format: in vivo; conditions: 80 g of ai/ha, WP sprayed at one-leaf stage, scored visually after about 3 weeks, 100% = plants have died, 0% = like control plants
# Procedure: as §1
# Echinochloa = experiment: Post-emergence test/greenhouse; format: in vivo; conditions: 80 g of ai/ha, WP sprayed at one-leaf stage, scored visually after about 3 weeks, 100% = plants have died, 0% = like control plants
# Procedure: as §1
# Lolium = experiment: Post-emergence test/greenhouse; format: in vivo; conditions: 80 g of ai/ha, WP sprayed at one-leaf stage, scored visually after about 3 weeks, 100% = plants have died, 0% = like control plants
# Procedure: as §1
# Setaria = experiment: Post-emergence test/greenhouse; format: in vivo; conditions: 80 g of ai/ha, WP sprayed at one-leaf stage, scored visually after about 3 weeks, 100% = plants have died, 0% = like control plants
# Procedure: as §1
# Sinapis = experiment: Post-emergence test/greenhouse; format: in vivo; conditions: 80 g of ai/ha, WP sprayed at one-leaf stage, scored visually after about 3 weeks, 100% = plants have died, 0% = like control plants
# Procedure: as §1
# Stellaria = experiment: Post-emergence test/greenhouse; format: in vivo; conditions: 80 g of ai/ha, WP sprayed at one-leaf stage, scored visually after about 3 weeks, 100% = plants have died, 0% = like control plants
# Procedure: as §1
# weeds = experiment: Post-emergence test (summary in words); format: in vivo, mono- and dicotyledonous weed plants; conditions: greenhouse, result in words
# Procedure: as §1
SMILES,"herbicidal effect in percent, Amaranthus (Amaranthus) [%]","herbicidal effect in percent, Cyperus (Cyperus) [%]","herbicidal effect in percent, Echinochloa (Echinochloa) [%]","herbicidal effect in percent, Lolium (Lolium) [%]","herbicidal effect in percent, Setaria (Setaria) [%]","herbicidal effect in percent, Sinapis (Sinapis) [%]","herbicidal effect in percent, Stellaria (Stellaria) [%]",effectiveness against weeds (weeds)
"COc1nc(C)nc(NC(=O)NS(=O)(=O)c2c(C3=NOCCO3)csc2C)n1 [Example 1, N-(4-methoxy-6-methyl-1,3,5-triazin-2-yl)-N′-(4-(5,6-dihydro-[1,4,2]-dioxazin-3-yl)-2-methylthien-3-ylsulfonyl)urea]",90,100,90,90,90,90,90,highly effective
COc1nn(C)c(=O)n1C [Example 6],90,80,80,90,80,80,90,highly effective
CCOc1nn(C)c(=O)n1C [Example 7],90,90,90,90,90,80,90,highly effective
